The subject of one assay is A549. Kind of assay: cells. Conditions: Homo sapiens.
The subject of the next assay is MCF7. As to the kind of experiment: Antiproliferative activity against human MCF7 cells by CCK8 assay.
The next assay has as its system NCI-H460. Kind of assay: Antiproliferative activity against human NCI-H460 cells by CCK8 assay. (In general: Tetrazolium assays rely on reduction of a dye to a coloured formazan, in cell work by metabolically active cells.)
The subject of another assay is MDA-MB-231. As to the kind of experiment: Antiproliferative activity against human MDA-MB-231 cells by CCK8 assay.

Among the data in ChEMBL document CHEMBL6153074, “Discovery of novel dual tubulin and MMPs inhibitors for the treatment of lung cancer and overcoming drug resistance” (Eur J Med Chem, 2025) are IC50 values, retold here.

Description for A549: Antiproliferative activity against human A549 cells by CCK8 assay

What is called IC50 is the concentration needed to halve the response being measured. Read a high IC50 as lower potency. With `CCOP(=O)(OCC)C(Nc1ccc(CC(=O)Oc2cc(/C=C/C(=O)c3cc(OC)c(OC)c(OC)c3)ccc2OC)cc1)c1cccc(C)c1` (stereo not given), the IC50 in the assay with A549 was found to be 309 nM; with MCF7, 414 nM; in the assay with NCI-H460, 385 nM; in the assay with MDA-MB-231, 574 nM.
For `CCOP(=O)(OCC)C(Nc1ccc(CC(=O)Oc2cc(/C=C/C(=O)c3cc(OC)c(OC)c(OC)c3)ccc2OC)cc1)c1ccc(OC)cc1` (stereo not given) the same measures were 545 nM, 752 nM, 658 nM and 834 nM.
For `CCOP(=O)(OCC)C(Nc1ccc(CC(=O)Oc2cc(/C=C/C(=O)c3cc(OC)c(OC)c(OC)c3)ccc2OC)cc1)c1cc(OC)c(OC)c(OC)c1` (stereo not given) the same measures were 712 nM, 915 nM, 840 nM and 952 nM.
For `CCOP(=O)(OCC)C(Nc1ccc(CC(=O)Oc2cc(/C=C/C(=O)c3cc(OC)c(OC)c(OC)c3)ccc2OC)cc1)c1ccc(Br)cc1` (stereo not given), in that order: 609 nM, 872 nM, 762 nM and 939 nM.
As to `COc1ccc(/C=C/C(=O)c2ccc(OC)c3c2OC(C)(C)C=C3)cc1` [MILLEPACHINE], the IC50 in the assay on A549 was determined as 5940 nM; in the assay with MCF7, 5620 nM; with NCI-H460, 7910 nM; in the assay on MDA-MB-231, 4290 nM.
Take `CCOP(=O)(OCC)C(Nc1ccc(CC(=O)Oc2cc(/C=C/C(=O)c3cc(OC)c(OC)c(OC)c3)ccc2OC)cc1)c1ccc([N+](=O)[O-])cc1` (stereo not given): the IC50 in the assay with A549 was determined as 328 nM; in the assay with MCF7, 507 nM; in the assay with NCI-H460, 423 nM; in the assay with MDA-MB-231, 570 nM.
For `CCOP(=O)(OCC)C(Nc1ccc(CC(=O)Oc2cc(/C=C/C(=O)c3ccc(OC)c4c3OC(C)(C)C=C4)ccc2OC)cc1)c1ccc(C)cc1` (stereo not given), in that order: 484 nM, 765 nM, 562 nM and 799 nM.
For the compound `CCOP(=O)(OCC)C(Nc1ccc(CC(=O)Oc2cc(/C=C/C(=O)c3ccc(OC)c4c3OC(C)(C)C=C4)ccc2OC)cc1)c1cc(OC)c(OC)c(OC)c1` (stereo not given), the IC50 in the assay on A549 came to 769 nM; with MCF7, 915 nM; with NCI-H460, 837 nM; in the assay with MDA-MB-231 it was 989 nM.
`CCOP(=O)(OCC)C(Nc1ccc(CC(=O)Oc2cc(/C=C/C(=O)c3cc(OC)c(OC)c(OC)c3)ccc2OC)cc1)c1ccc(C)cc1` (stereo not given): the IC50 in the assay on A549 was determined as 399 nM; in the assay with MCF7, 540 nM; in the assay on NCI-H460, 452 nM; in the assay with MDA-MB-231, 668 nM.
For `CCOP(=O)(OCC)C(Nc1ccc(CC(=O)Oc2cc(/C=C/C(=O)c3ccc(OC)c4c3OC(C)(C)C=C4)ccc2OC)cc1)c1cccc([N+](=O)[O-])c1` (stereo not given), in that order: 206 nM, 332 nM, 299 nM and 454 nM.
For `CCOP(=O)(OCC)C(Nc1ccc(CC(=O)Oc2cc(/C=C/C(=O)c3ccc(OC)c4c3OC(C)(C)C=C4)ccc2OC)cc1)c1ccccc1` (stereo not given), in that order: 591 nM, 797 nM, 698 nM and 898 nM.
For `CCOP(=O)(OCC)C(Nc1ccc(CC(=O)Oc2cc(/C=C/C(=O)c3ccc(OC)c4c3OC(C)(C)C=C4)ccc2OC)cc1)c1ccc(F)cc1` (stereo not given), in that order: 392 nM, 567 nM, 500 nM and 692 nM.
As to `CCOP(=O)(OCC)C(Nc1ccc(CC(=O)Oc2cc(/C=C/C(=O)c3ccc(OC)c4c3OC(C)(C)C=C4)ccc2OC)cc1)c1ccc([N+](=O)[O-])cc1` (stereo not given), the IC50 with A549 is 368 nM; in the assay on MCF7, 554 nM; in the assay with NCI-H460 it was 469 nM; with MDA-MB-231, 643 nM.
For `CCOP(=O)(OCC)C(Nc1ccc(CC(=O)Oc2cc(/C=C/C(=O)c3ccc(OC)c4c3OC(C)(C)C=C4)ccc2OC)cc1)c1ccc(Br)cc1` (stereo not given) the same measures were 741 nM, 829 nM, 780 nM and 959 nM.
As for `CCOP(=O)(OCC)C(Nc1ccc(CC(=O)Oc2cc(/C=C/C(=O)c3cc(OC)c(OC)c(OC)c3)ccc2OC)cc1)c1cccc(F)c1` (stereo not given), the IC50 was 253 nM with A549, 357 nM in the assay with MCF7, 267 nM in the assay with NCI-H460 and 492 nM with MDA-MB-231.
For `CCOP(=O)(OCC)C(Nc1ccc(CC(=O)Oc2cc(/C=C/C(=O)c3cc(OC)c(OC)c(OC)c3)ccc2OC)cc1)c1ccccc1` (stereo not given), in that order: 632 nM, 828 nM, 704 nM and 940 nM.
For `CCOP(=O)(OCC)C(Nc1ccc(CC(=O)Oc2cc(/C=C/C(=O)c3ccc(OC)c4c3OC(C)(C)C=C4)ccc2OC)cc1)c1cccc(Cl)c1` (stereo not given) the same measures were 656 nM, 732 nM, 785 nM and 928 nM.
For `CCOP(=O)(OCC)C(Nc1ccc(CC(=O)Oc2cc(/C=C/C(=O)c3cc(OC)c(OC)c(OC)c3)ccc2OC)cc1)c1ccc(OC)c(OC)c1` (stereo not given) the same measures were 683 nM, 806 nM, 739 nM and 893 nM.
`CCOP(=O)(OCC)C(Nc1ccc(CC(=O)Oc2cc(/C=C/C(=O)c3ccc(OC)c4c3OC(C)(C)C=C4)ccc2OC)cc1)c1ccc(OC)c(OC)c1` (stereo not given): the IC50 with A549 is 608 nM; in the assay with MCF7 it was 822 nM; in the assay with NCI-H460, 731 nM; in the assay with MDA-MB-231 it was 936 nM.
`CCOP(=O)(OCC)C(Nc1ccc(CC(=O)Oc2cc(/C=C/C(=O)c3cc(OC)c(OC)c(OC)c3)ccc2OC)cc1)c1cccc(OC)c1` (stereo not given): the half-inhibitory concentration (IC50) in the assay with A549 was 379 nM; with MCF7 it was 667 nM; with NCI-H460, 465 nM; with MDA-MB-231 it was 721 nM.
For `CCOP(=O)(OCC)C(Nc1ccc(CC(=O)Oc2cc(/C=C/C(=O)c3ccc(OC)c4c3OC(C)(C)C=C4)ccc2OC)cc1)c1ccc(OC)cc1` (stereo not given), in that order: 560 nM, 801 nM, 654 nM and 934 nM.
For `CCOP(=O)(OCC)C(Nc1ccc(CC(=O)Oc2cc(/C=C/C(=O)c3ccc(OC)c4c3OC(C)(C)C=C4)ccc2OC)cc1)c1ccc(Cl)cc1` (stereo not given), in that order: 709 nM, 808 nM, 758 nM and 978 nM.
For `CCOP(=O)(OCC)C(Nc1ccc(CC(=O)Oc2cc(/C=C/C(=O)c3cc(OC)c(OC)c(OC)c3)ccc2OC)cc1)c1cccc(Cl)c1` (stereo not given) the same measures were 649 nM, 818 nM, 845 nM and 901 nM.
On to `CCOP(=O)(OCC)C(Nc1ccc(CC(=O)Oc2cc(/C=C/C(=O)c3ccc(OC)c4c3OC(C)(C)C=C4)ccc2OC)cc1)c1cccc(F)c1` (stereo not given), for which the IC50 is 288 nM with A549, 423 nM with MCF7, 374 nM in the assay with NCI-H460 and 544 nM in the assay with MDA-MB-231.
For `COc1ccc(/C=C/C(=O)c2ccc(OC)c3c2OC(C)(C)C=C3)cc1O` the same measures were 1220 nM, 1150 nM, 1070 nM and 1040 nM.
